Measured values from patent US12714696B2, “Low dose fluralaner compositions for protection against parasitic invertebrate pest” (VIRBAC, priority 2019, dated 2026).
Read-outs that look alike come from different tables or passages of the source.

Assay: Pharmacokinetics after repeated oral administration of 250 μg/kg and 35 μg/kg of fluralaner in dogs after feeding
Type: in vivo, beagle dogs
Settings: for concentration at 168 h / concentration at 192 h / concentration at 216 h / concentration at 240 h / concentration at 384 h / concentration at 528 h / concentration at 624 h / concentration at 720 h / half-life / Cmax: beagle, dog, plasma, po
Protocol: The first objective is to obtain the pharmacokinetic parameters after repeated oral administration of […] and 35 μg/kg of fluralaner in dogs after feeding.
The second objective is to investigate the pharmacodynamics between the fluralaner plasmatic dose and the effectiveness against ticks. • IVP: Investigational Veterinary Product, is pure Fluralaner+DMSO (250 μg/kg on Days 0 to 3 (0.25 mL/kg), then 35 μg/kg on Days 4 to 9 (0.35 mL/kg), then 600 μg/kg on Day 11) • Control product is DMSO (0.25 mL/kg on Days 0 to 3, then 0.35 mL/kg on Days 4 to 9)
On Days 0, 1, 2 and 3, all dogs assigned to group 2 received the Investigational Veterinary Product. On Days 0 to 3 all dogs in group 1 received the control product at a volume equal to the dogs in group 2. Dogs assigned to group 1 received the control product and served as Placebo controls. The quantity of Investigational Veterinary Product and control product administered was calculated according to the dog's individual body weight measured on Day −1. […]
On days of administration of pre-Investigational Veterinary Product or Control Product, dogs were fed (the same dog food) approximately half of their normal daily ration 30 minutes to 35 minutes prior to administration. Food consumed by the time of administration was calculated and recorded. The remainder of their normal daily ration was fed immediately after administration.
The PK parameters of fluralaner were calculated using a non-compartmental approach.
The following rules were applied for the calculation of the PK parameters: • All the plasma concentrations, validated by the bioanalytical laboratory, were used for the PK analysis. • The actual blood sampling times were used throughout. • Concentrations below the Limit of Quantification (LOQ) value were considered as zero from time zero (pre-dose) up to the time at which the first quantifiable concentration above the LOQ value was observed. Concentrations below the LOQ value between two quantifiable concentrations were considered as missing. Trailing concentrations below the LOQ value were not used in calculations.
Cmax the observed maximum concentration in plasma measured after dosing.
λz the terminal rate constant (λz) was estimated by log-linear regression analysis on data points visually assessed, to be on the terminal log-linear phase. For the slope of the terminal elimination phase to be accepted as reliable, the following criteria were used: • the terminal data points were apparently randomly distributed about a single straight line (on visual inspection), • a minimum of three data points, including the last measured data point and excluding Cmax, were available for the regression.
t1/2 the terminal plasma half-life (t1/2) was calculated according to the following equation: […]

[1] = oral 250 μg/kg Days 0-3, 35 μg/kg Days 4-9, 600 μg/kg Day 11, dogs, read-out: fluralaner concentration levels, individual animal
[2] = oral 250/35/600 μg/kg regimen, dogs, n=6, read-out: fluralaner concentration levels, GeoMean
[3] = oral 250/35/600 μg/kg regimen, dogs, n=6, read-out: fluralaner concentration levels, Maximum
[4] = oral 250/35/600 μg/kg regimen, dogs, n=6, read-out: fluralaner concentration levels, Mean
[5] = oral 250/35/600 μg/kg regimen, dogs, n=6, read-out: fluralaner concentration levels, Median
[6] = oral 250/35/600 μg/kg regimen, dogs, n=6, read-out: fluralaner concentration levels, Minimum

Structure (SMILES): Cc1cc(C2=NOC(c3cc(Cl)cc(Cl)c3)(C(F)(F)F)C2)ccc1C(=O)NCC(=O)NCC(F)(F)F (stereo not drawn) [fluralaner, Fluralaner]
- concentration at 168 h [1]: 491 ng/mL
- concentration at 168 h [2]: 517 ng/mL
- concentration at 168 h [3]: 580 ng/mL
- concentration at 168 h [4]: 518 ng/mL
- concentration at 168 h [5]: 520 ng/mL
- concentration at 168 h [6]: 461 ng/mL
- concentration at 192 h [1]: 542 ng/mL
- concentration at 192 h [2]: 508 ng/mL
- concentration at 192 h [3]: 558 ng/mL
- concentration at 192 h [4]: 509 ng/mL
- concentration at 192 h [5]: 520 ng/mL
- concentration at 192 h [6]: 455 ng/mL
- concentration at 216 h [1]: 477 ng/mL
- concentration at 216 h [2]: 515 ng/mL
- concentration at 216 h [3]: 650 ng/mL
- concentration at 216 h [4]: 518 ng/mL
- concentration at 216 h [5]: 485 ng/mL
- concentration at 216 h [6]: 468 ng/mL
- concentration at 240 h [1]: 386 ng/mL
- concentration at 240 h [2]: 469 ng/mL
- concentration at 240 h [3]: 724 ng/mL
- concentration at 240 h [4]: 483 ng/mL
- concentration at 240 h [5]: 422 ng/mL
- concentration at 240 h [6]: 368 ng/mL
- concentration at 384 h [1]: 561 ng/mL
- concentration at 384 h [2]: 693 ng/mL
- concentration at 384 h [3]: 1000 ng/mL
- concentration at 384 h [4]: 714 ng/mL
- concentration at 384 h [5]: 654 ng/mL
- concentration at 384 h [6]: 523 ng/mL
- concentration at 528 h [2]: 327 ng/mL
- concentration at 528 h [3]: 517 ng/mL
- concentration at 528 h [4]: 339 ng/mL
- concentration at 528 h [5]: 320 ng/mL
- concentration at 528 h [6]: 235 ng/mL
- concentration at 624 h [2]: 254 ng/mL
- concentration at 624 h [3]: 403 ng/mL
- concentration at 624 h [4]: 263 ng/mL
- concentration at 624 h [5]: 244 ng/mL
- concentration at 624 h [6]: 182 ng/mL
- concentration at 720 h [1]: 300 ng/mL
- concentration at 720 h [2]: 262 ng/mL
- concentration at 720 h [3]: 300 ng/mL
- concentration at 720 h [4]: 265 ng/mL
- concentration at 720 h [5]: 280 ng/mL
- concentration at 720 h [6]: 187 ng/mL
- half-life (oral 250 μg/kg Days 0-3, 35 μg/kg Days 4-9, 600 μg/kg Day 11, dogs, read-out: mean terminal half-life (converted)): 15.5 days
- Cmax (oral 250/35/600 μg/kg regimen, dogs, read-out: Cmax, range): 561 to 1000 ng/mL
- Cmax (oral 250/35/600 μg/kg regimen, dogs, read-out: mean Cmax): 733 ng/mL
- half-life (oral 250/35/600 μg/kg regimen, dogs, read-out: terminal half-life, range): 9.47 to 20.6 days
- steady state concentrations (with the 35 μg/kg per day dose application from Day 4 to Day 9): reached
